Test results: patent US20250312499A1, “KISSPEPTIN RECEPTOR (KISS1R) TARGETED THERAPEUTICS AND USES THEREOF” (priority 2024, published 2025)
pKi: −log10 of the molar value. Numbered stars: 1 amine (or outer) side, 2 acyl side, 3 side chain; on linkers, the order of the positions; unused ones are H or OH. Square brackets hold non-standard residues; d marks the D form. Peptide text beside a SMILES is read from it. * marks the point of attachment. DOTA = O=C(O)CN1CCN(CC(=O)O)CCN(CC(=O)*)CCN(CC(=O)O)CC1; Gly(N-(3-F-4-Me-benzyl)) = Cc1ccc(CNCC(=O)*)cc1F; Acetyl(2-(HOCH2CH2OCH2CH2O)) = O=C(COCCOCCO)*; Phe(4-CN) = N#Cc1ccc(C[C@H](N)C(=O)O)cc1; X3 = CNC(=N)N1CCC(N[*:1])(C(=O)[*:2])CC1; Phe(3-F) = N[C@@H](Cc1cccc(F)c1)C(=O)O; 2Nal = N[C@@H](Cc1ccc2ccccc2c1)C(=O)O; Trx = NC[C@H]1CC[C@H](C(=O)O)CC1; 4Pal = N[C@@H](Cc1ccncc1)C(=O)O; 4Abz = Nc1ccc(C(=O)O)cc1; Api = NC1(C(=O)O)CCNCC1; AEEA = NCCOCCOCC(=O)O; Ahx = NCCCCCC(=O)O; azaGly = NNC(=O)O

Each molecule was assayed against human kisspeptin receptor (Homo sapiens (Human), UniProt Q969F8) (assay: Human KISS1R binding assay (membrane competition binding)). Details: 90 min at room temperature; competition with 0.2 nM [125I]-metastin (45-54); Flp-In T-Rex 293 kisspeptin membranes; metal complexes nonradioactive Ga, In, Lu; read-out: hKiSSR Binding Ki (90 min).
Protocol: Crude membrane fractions are prepared from Flp-In T-Rex 293 (Thermo Fisher) cell line expressing the human kisspeptin receptor. The cells are grown to 85-100% confluence on standard tissue culture dishes in Dulbecco's Modified Eagles Medium (DMEM) (Corning) supplemented with 10% FBS (Gemini), 1% penicillin-streptomycin-glutamine (Gibco), 500 μg/mL hygromycin, and 15 μg/mL blastacidin. 48 hrs prior to preparing membranes 10 μg/ml of tetracycline is added to the culture media to induce receptor expression. To prepare membranes, cells are scraped and collected in 1× Dulbecco's phosphate buffered saline (Corning) and then pelleted at 1000 RPMs. The cell pellet is reconstituted in membrane preparation buffer (20 mM HEPES, 6 mM MgCl2 and 1 mM EGTA, protease inhibitor tablets (Pierce), pH 7.4) and placed in a cell disruption vessel (Parr Instrument company) at 1000 PSI for 30 min on ice. The pressurized contents are then released and spun down at 1000 RPMs and the supernatant is collected and further centrifuged at 15,000 RPMs to pellet the membranes. The membrane pellet is resuspended in membrane preparation buffer, snap frozen and stored at −80° C. for later use.
The human kisspeptin membrane binding assay utilizes the following components: radiolabel [^125I]-metastin (45-54) (human) (Perkinhmer), crude Flp-In T-Rex 293 kisspeptin membranes, and competing small molecule and peptide ligands. The assay is initiated by combining in assay buffer (50 mM TrisHCl, 5 mM MgCl2, 2 mM EGTA, 10 mM CaCl2, 0.1% BSA, pH 7.4) a dose response of competing ligand (final concentrations are typically 0-10,000 nM), 5-10 μg of Flp-In T-Rex 293 kisspeptin membranes, and 0.2 n M [^125I]-metastin (45-54) in a 96-well assay plate and allowed to incubate 90 minutes at room temperature. Assay contents are then filtered through unifilter CF/C: microplates (PerkinElmer) pre-soaked with 0.5% BSA and washed with 9×400 μL of cold wash buffer (10 mM HEPES, 500 mM NaCl, 0.1% Tween-20, pH7.4). Assay plates are read using a Microbeta^2 (PerkinElmer) and Ki values for compounds are determined using a GraphPad Prism 9.3 non-linear regression analysis.

Chain of human kisspeptin receptor (Q969F8 whole entry): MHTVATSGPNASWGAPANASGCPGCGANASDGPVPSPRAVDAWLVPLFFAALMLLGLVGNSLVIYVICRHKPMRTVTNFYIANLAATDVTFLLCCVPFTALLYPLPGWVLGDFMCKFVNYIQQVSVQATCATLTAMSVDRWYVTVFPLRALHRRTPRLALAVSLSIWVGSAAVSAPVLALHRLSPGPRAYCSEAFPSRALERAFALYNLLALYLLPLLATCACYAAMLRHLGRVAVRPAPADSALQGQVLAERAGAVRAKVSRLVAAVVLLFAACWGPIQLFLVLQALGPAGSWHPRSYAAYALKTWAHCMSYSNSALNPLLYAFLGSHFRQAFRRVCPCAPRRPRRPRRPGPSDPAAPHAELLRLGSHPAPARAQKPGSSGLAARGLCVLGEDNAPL

SMILES	pKi
Cc1ccc(CNCC(=O)N2CCC(NC(=O)[C@H](CC(C)C)NC(=O)NNC(=O)[C@H](Cc3ccccc3)NC(=O)[C@H]3CC[C@H](CNC(=O)CCCCCNC(=O)CN4CCN(CC(=O)O)CCN(CC(=O)O)CCN(CC(=O)O)CC4)CC3)(C(=O)N[C@@H](Cc3c[nH]c4ccccc34)C(N)=O)CC2)cc1F [Compound 38] ({DOTA-Ahx-Trx}-F[azaGly]L[Api](Gly(N-(3-F-4-Me-benzyl)))W-NH2)	< 7.00
Cc1ccc(CNCC(=O)N2CCC(NC(=O)[C@H](CC(C)C)n3cc([C@H](Cc4ccccc4)NC(=O)[C@H](N)CCCCNC(=O)CN4CCN(CC(=O)O)CCN(CC(=O)O)CCN(CC(=O)O)CC4)nn3)(C(=O)N[C@@H](Cc3c[nH]c4ccccc34)C(N)=O)CC2)cc1F [Compound 39]	< 7.00
Cc1ccc(CNCC(=O)N2CCC(NC(=O)[C@H](CC(C)C)NC(=O)NNC(=O)[C@H](Cc3ccccc3)NC(=O)c3ccc(NC(=O)CN4CCN(CC(=O)O)CCN(CC(=O)O)CCN(CC(=O)O)CC4)cc3)(C(=O)N[C@@H](Cc3c[nH]c4ccccc34)C(N)=O)CC2)cc1F [Compound 50] ({DOTA-4Abz}-F[azaGly]L[Api](Gly(N-(3-F-4-Me-benzyl)))W-NH2)	> 8.00
Cc1ccc(CNCC(=O)N2CCC(NC(=O)[C@@H](/C=C/CNC(=O)[C@H](Cc3ccccc3)NC(=O)CCCCCNC(=O)CN3CCN(CC(=O)O)CCN(CC(=O)O)CCN(CC(=O)O)CC3)CC(C)C)(C(=O)N[C@@H](Cc3c[nH]c4ccccc34)C(N)=O)CC2)cc1F [Compound 51]	> 8.00
Cc1ccc(CNCC(=O)N2CCC(NC(=O)[C@H](CC(C)C)NC(=O)NNC(=O)[C@H](Cc3ccccc3)NC(=O)[C@@H](NC(=O)[C@H](CC(N)=O)NC(=O)[C@@H](Cc3c[nH]c4ccccc34)NC(=O)[C@@H](Cc3ccc(O)cc3)NC(=O)COCCOCCNC(=O)CN3CCN(CC(=O)O)CCN(CC(=O)O)CCN(CC(=O)O)CC3)[C@@H](C)O)(C(=O)N[C@@H](Cc3c[nH]c4ccccc34)C(N)=O)CC2)cc1F [Compound 57] ({DOTA-AEEA}-[dY][dW]NTF[azaGly]L[Api](Gly(N-(3-F-4-Me-benzyl)))W-NH2)	> 8.00
Cc1ccc(CNCC(=O)N2CCC(NC(=O)[C@H](CC(C)C)NC(=O)NNC(=O)[C@H](Cc3ccccc3)NC(=O)[C@@H](NC(=O)[C@H](CC(N)=O)NC(=O)[C@H](Cc3ccc4ccccc4c3)NC(=O)[C@@H](Cc3ccc(O)cc3)NC(=O)COCCOCCNC(=O)CN3CCN(CC(=O)O)CCN(CC(=O)O)CCN(CC(=O)O)CC3)[C@@H](C)O)(C(=O)N[C@@H](Cc3c[nH]c4ccccc34)C(N)=O)CC2)cc1F [Compound 58] ({DOTA-AEEA}-[dY][2Nal]NTF[azaGly]L[Api](Gly(N-(3-F-4-Me-benzyl)))W-NH2)	> 8.00
Cc1ccc(CNCC(=O)N2CCC(NC(=O)[C@H](CC(C)C)NC(=O)NNC(=O)[C@H](Cc3ccccc3)NC(=O)[C@@H](NC(=O)[C@H](CC(N)=O)NC(=O)[C@@H](Cc3c[nH]c4ccccc34)NC(=O)[C@@H](Cc3ccc(O)cc3)NC(=O)CCCCCNC(=O)CN3CCN(CC(=O)O)CCN(CC(=O)O)CCN(CC(=O)O)CC3)[C@@H](C)O)(C(=O)N[C@@H](Cc3ccc(C#N)cc3)C(N)=O)CC2)cc1F [Compound 104] ({DOTA-Ahx}-[dY][dW]NTF[azaGly]L[Api](Gly(N-(3-F-4-Me-benzyl)))[Phe(4-CN)]-NH2)	> 8.00
Cc1ccc(CNCC(=O)N2CCC(NC(=O)[C@H](CC(C)C)NC(=O)NNC(=O)[C@H](Cc3ccccc3)NC(=O)[C@@H](NC(=O)[C@H](CC(N)=O)NC(=O)[C@@H](Cc3c[nH]c4ccccc34)NC(=O)[C@@H](Cc3ccc(O)cc3)NC(=O)CCCCCNC(=O)CN3CCN(CC(=O)O)CCN(CC(=O)O)CCN(CC(=O)O)CC3)[C@@H](C)O)(C(=O)N[C@@H](Cc3ccncc3)C(N)=O)CC2)cc1F [Compound 105] ({DOTA-Ahx}-[dY][dW]NTF[azaGly]L[Api](Gly(N-(3-F-4-Me-benzyl)))[4Pal]-NH2)	> 8.00
Cc1ccc(CNCC(=O)N2CCC(NC(=O)[C@H](CC(C)C)NC(=O)NNC(=O)[C@H](Cc3ccccc3)NC(=O)[C@@H](NC(=O)[C@H](CC(N)=O)NC(=O)[C@@H](Cc3c[nH]c4ccccc34)NC(=O)[C@H](CC(N)=O)NC(=O)[C@@H](Cc3ccc(O)cc3)NC(=O)CCCCCNC(=O)CN3CCN(CC(=O)O)CCN(CC(=O)O)CCN(CC(=O)O)CC3)[C@@H](C)O)(C(=O)N[C@@H](Cc3ccncc3)C(N)=O)CC2)cc1F [Compound 106] ({DOTA-Ahx}-[dY]N[dW]NTF[azaGly]L[Api](Gly(N-(3-F-4-Me-benzyl)))[4Pal]-NH2)	> 8.00

Continued, values first:

pKi	SMILES
< 7.00	Cc1ccc(CNCC(=O)N2CCC(NC(=O)[C@H](CC(C)C)NC(=O)NNC(=O)[C@H](Cc3ccccc3)NC(=O)CN3CCN(CC(=O)O)CCN(CC(=O)O)CCN(CC(=O)O)CC3)(C(=O)N[C@@H](Cc3c[nH]c4ccccc34)C(N)=O)CC2)cc1F [Compound 49] ({DOTA}-F[azaGly]L[Api](Gly(N-(3-F-4-Me-benzyl)))W-NH2)
> 8.00	Cc1ccc(CNCC(=O)N2CCC(NC(=O)[C@H](CC(C)C)NC(=O)NNC(=O)[C@H](Cc3ccccc3)NC(=O)CCCCCNC(=O)CN3CCN(CC(=O)O)CCN(CC(=O)O)CCN(CC(=O)O)CC3)(C(=O)N[C@@H](Cc3ccccc3)C(N)=O)CC2)cc1F [Compound 55] ({DOTA-Ahx}-F[azaGly]L[Api](Gly(N-(3-F-4-Me-benzyl)))F-NH2)
> 8.00	Cc1ccc(CNCC(=O)N2CCC(NC(=O)[C@H](CC(C)C)NC(=O)NNC(=O)[C@H](Cc3cccc(F)c3)NC(=O)[C@@H](NC(=O)[C@H](CC(N)=O)NC(=O)[C@H](CCCCNC(=O)CN3CCN(CC(=O)O)CCN(CC(=O)O)CCN(CC(=O)O)CC3)NC(=O)[C@@H](Cc3ccc(O)cc3)NC(=O)COCCOCCO)[C@@H](C)O)(C(=O)N[C@@H](Cc3c[nH]c4ccccc34)C(N)=O)CC2)cc1F [Compound 64] ({Acetyl(2-(HOCH2CH2OCH2CH2O))}-[dY]K(DOTA)NT[Phe(3-F)][azaGly]L[Api](Gly(N-(3-F-4-Me-benzyl)))W-NH2)
> 8.00	CNC(=N)N1CCC(NC(=O)[C@H](CC(C)C)NC(=O)NNC(=O)[C@H](Cc2ccccc2)NC(=O)[C@@H](NC(=O)[C@H](CC(N)=O)NC(=O)[C@@H](Cc2c[nH]c3ccccc23)NC(=O)[C@@H](Cc2ccc(O)cc2)NC(=O)CCCCCNC(=O)CN2CCN(CC(=O)O)CCN(CC(=O)O)CCN(CC(=O)O)CC2)[C@@H](C)O)(C(=O)N[C@@H](Cc2c[nH]c3ccccc23)C(N)=O)CC1 [Compound 91] ({DOTA-Ahx}-[dY][dW]NTF[azaGly]L[X3]W-NH2)
> 8.00	Cc1ccc(CNCC(=O)N2CCC(NC(=O)[C@H](CC(C)C)NC(=O)NNC(=O)[C@H](Cc3ccccc3)NC(=O)[C@@H](NC(=O)[C@H](CC(N)=O)NC(=O)[C@@H](Cc3c[nH]c4ccccc34)NC(=O)[C@@H](Cc3c[nH]cn3)NC(=O)[C@@H](Cc3ccc(O)cc3)NC(=O)CCCCCNC(=O)CN3CCN(CC(=O)O)CCN(CC(=O)O)CCN(CC(=O)O)CC3)[C@@H](C)O)(C(=O)N[C@@H](Cc3ccncc3)C(N)=O)CC2)cc1F [Compound 107] ({DOTA-Ahx}-[dY][dH][dW]NTF[azaGly]L[Api](Gly(N-(3-F-4-Me-benzyl)))[4Pal]-NH2)
> 8.00	Cc1ccc(CNCC(=O)N2CCC(NC(=O)[C@H](CC(C)C)NC(=O)NNC(=O)[C@H](Cc3ccccc3)NC(=O)[C@@H](NC(=O)[C@H](CC(N)=O)NC(=O)NNC(=O)[C@@H](Cc3ccc(O)cc3)NC(=O)CCCCCNC(=O)CN3CCN(CC(=O)O)CCN(CC(=O)O)CCN(CC(=O)O)CC3)[C@@H](C)O)(C(=O)N[C@@H](Cc3c[nH]c4ccccc34)C(N)=O)CC2)cc1F [Compound 108] ({DOTA-Ahx}-[dY][azaGly]NTF[azaGly]L[Api](Gly(N-(3-F-4-Me-benzyl)))W-NH2)
